According to US20050222173A1, “Triazolopyrimidines” (priority 2002, published 2005):

Assays:
[1] = physchem
[2] = tested on: Pyricularia oryzae; format: in vivo; conditions: rice, protective, application rate 250 g/ha, evaluation 6 days after inoculation
[3] = tested on: Venturia inaequalis; assay: Venturia test (apple)/protective; format: in vivo; conditions: Venturia inaequalis, 240 h, protective, application rate 100 g/ha, evaluation 10 days after inoculation, read-out: Efficacy in %
Procedure: Venturia Test (Apple)/Protective [table] To produce a suitable preparation of active compound, 1 part by weight of active compound is mixed with the stated amounts of solvent and emulsifier, and the concentrate is diluted with water to the desired concentration. To test for protective activity, young plants are sprayed with the preparation of active compound at the stated application rate. […] The plants are then placed in a greenhouse at about 21° C. and a relative atmospheric humidity of about […].

SMILES | chromatographic logP [1] | pest or weed control at 100 g/ha [3] [%] | further results
Clc1ccccc1-c1c(Cl)nc2nc(Br)nn2c1Cl [Example 178, 2-Bromo-5,7-dichloro-6-(2-chlorophenyl)[1,2,4]triazolo[1,5-a]pyrimidine] | 3.39 |  | 
Clc1nc2nc(Cl)c(-c3ccccc3Cl)c(Cl)n2n1 [Example 177, 2,5,7-trichloro-6-(2-chlorophenyl)[1,2,4]triazolo[1,5-a]pyrimidine] | 3.37 |  | 
C[C@H](Nc1c(-c2ccccc2Cl)c(Cl)nc2nc(Cl)nn12)C(F)(F)F |  |  | Efficacy in % [2]: 100%
C[C@H](Nc1c(-c2c(F)cccc2Cl)c(Cl)nc2nc(Cl)nn12)C(F)(F)F [drawing 69] |  |  | Efficacy in % [2]: 100%
CC1CCCN(c2c(-c3c(F)cc(F)cc3F)c(Cl)nc3nc(Cl)nn23)C1 (centres unmarked) [drawing 57] |  | 96 | 
CC(C)CNc1c(-c2ccc(F)cc2F)c(Cl)nc2nc(Cl)nn12 [drawing 58] |  | 85 | 
CC(C)Nc1c(-c2ccccc2Cl)c(Cl)nc2nc(Cl)nn12 [Example 1, N-[2,5-dichloro-6-(2-chlorophenyl)[1,2,4]triazolo[1,5-a]pyrimidin-7-yl]-N-isopropylamine] | 3.43 |  | 
COc1nc2nc(Cl)c(-c3c(F)cc(F)cc3OC)c(NC(C)C(F)(F)F)n2n1 (centres unmarked) [drawing 67] |  | 99 | 
Fc1cc(F)c(-c2c(Cl)nc3nc(Cl)nn3c2Cl)c(F)c1 [Example 179, 2,5,7-Trichloro-6-(2,4,6-trifluorophenyl)[1,2,4]triazolo[1,5-a]pyrimidine] | 3.28 |  | 
Fc1cc(F)c(-c2c(Cl)nc3nc(Br)nn3c2Cl)c(F)c1 [Example 180, 2-Bromo-5,7-dichloro-6-(2,4,6-trifluorophenyl)[1,2,4]triazolo[1,5-a]pyrimidine] | 3.27 |  | 
Fc1cccc(Cl)c1-c1c(Cl)nc2nc(Cl)nn2c1NCC1CC1 [drawing 64] |  | 99 | 
C[C@H](Nc1c(-c2c(F)cccc2Cl)c(Cl)nc2nc(Cl)nn12)C(F)(F)F [drawing 59] |  | 100 | 
Fc1ccc(-c2c(Cl)nc3nc(Cl)nn3c2N[C@@H](Cl)C(F)(F)F)c(F)c1 [drawing 60] |  | 100 | 
C[C@@H](Nc1c(-c2ccccc2Cl)c(Cl)nc2nc(Cl)nn12)C(F)(F)F [drawing 50] |  | 100 | 
